Measured values: patent US11548875B2, “Inhibitor compounds for male contraception” (University of Washington, priority 2018, dated 2023)

How the values were obtained:
[1] = target: T1, ALDH1A1 (Homo sapiens, UniProt P00352); assay: Cell-based enzyme assay, retinoic acid production in ALDH1A1/H1299 cells; conditions: cell-based
T1 sequence (P00352 1-501): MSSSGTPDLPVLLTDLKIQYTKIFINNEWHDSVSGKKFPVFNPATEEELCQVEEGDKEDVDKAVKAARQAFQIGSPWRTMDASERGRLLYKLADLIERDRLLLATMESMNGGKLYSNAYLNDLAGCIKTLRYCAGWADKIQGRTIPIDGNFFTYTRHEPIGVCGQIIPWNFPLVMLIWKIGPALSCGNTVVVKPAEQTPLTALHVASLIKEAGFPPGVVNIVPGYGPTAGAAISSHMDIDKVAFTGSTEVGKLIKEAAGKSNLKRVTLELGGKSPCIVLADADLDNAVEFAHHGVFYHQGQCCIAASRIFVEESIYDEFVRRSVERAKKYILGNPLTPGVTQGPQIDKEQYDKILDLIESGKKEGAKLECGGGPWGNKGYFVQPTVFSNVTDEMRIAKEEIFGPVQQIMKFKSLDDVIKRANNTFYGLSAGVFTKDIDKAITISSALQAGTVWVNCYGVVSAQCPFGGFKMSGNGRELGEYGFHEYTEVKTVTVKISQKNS
Experimental: (§1) ALDH1A1 cDNA clone was purchased transfection-ready, and ALDH1A2 full-length cDNA was subcloned into pcDNA3, a mammalian expression vector. ALDH1A1 and ALDH1A2 were transfected into H1299 cells (CRL5803, ATCC) using Lipofectamine 3000 (Invitrogen) following the manufacturer's instructions. Stably transfected cells were selected with G418 (1.2 mg/ml) and referred to as ALDH1A1/H1299 and ALDH1A2/H1299. For the cell-based enzyme assays,
(§2) H1299 cells were routinely grown in RPMI-1640 (ATCC) supplemented with 10% fetal bovine serum (Atlanta Biologicals) in a 37 C, 5% CO2, moisture-saturated atmosphere. H1299, ALDH1A1/H1299 and ALDH1A2/H1299 cells were seeded into 12-well plates (1×10^5 cells/well) and grown for 2 days to confluence. Confluent cells were treated for 20 hours in the above media excluding serum with 2 μM all-trans-retinal, and varying concentrations of inhibitors. Serum-free media was used for the treatment period to avoid retinoic acid in serum. Retinoic acid concentrations were determined from cells and media, and specificity of inhibitors was determined by comparing retinoic acid levels in the presence and absence of the inhibitors in ALDH1A1- vs. ALDH1A2-expressing cells.

[2] = target: T2, ALDH1A2 (Homo sapiens, UniProt O94788); assay: Cell-based enzyme assay, retinoic acid production in ALDH1A2/H1299 cells; conditions: cell-based
T2 sequence (O94788 1-518): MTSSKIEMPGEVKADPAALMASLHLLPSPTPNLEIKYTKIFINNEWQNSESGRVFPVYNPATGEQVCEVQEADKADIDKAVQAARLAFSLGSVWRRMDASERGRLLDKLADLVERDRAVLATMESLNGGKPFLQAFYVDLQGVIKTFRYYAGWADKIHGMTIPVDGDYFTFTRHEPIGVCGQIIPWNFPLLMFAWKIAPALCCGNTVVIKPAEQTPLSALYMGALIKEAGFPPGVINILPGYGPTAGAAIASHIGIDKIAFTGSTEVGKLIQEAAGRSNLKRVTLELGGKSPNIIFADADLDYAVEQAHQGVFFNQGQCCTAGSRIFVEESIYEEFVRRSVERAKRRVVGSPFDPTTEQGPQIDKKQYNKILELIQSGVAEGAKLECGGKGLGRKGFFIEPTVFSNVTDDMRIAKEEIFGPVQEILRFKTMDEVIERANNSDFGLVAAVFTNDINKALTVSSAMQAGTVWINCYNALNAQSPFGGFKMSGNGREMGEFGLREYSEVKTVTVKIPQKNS
Experimental: as §1, §2

[3] = target: T3, ALDH2 (Homo sapiens, UniProt P05091); assay: Purified ALDH2 assay with propanal, NADH fluorescence; assay type: biochemical; conditions: purified enzyme
T3 construct: histidine-tag (N); made in house; host or cells: bacterial expression (pETite vector, IPTG induction)
T3 sequence (P05091 18-517): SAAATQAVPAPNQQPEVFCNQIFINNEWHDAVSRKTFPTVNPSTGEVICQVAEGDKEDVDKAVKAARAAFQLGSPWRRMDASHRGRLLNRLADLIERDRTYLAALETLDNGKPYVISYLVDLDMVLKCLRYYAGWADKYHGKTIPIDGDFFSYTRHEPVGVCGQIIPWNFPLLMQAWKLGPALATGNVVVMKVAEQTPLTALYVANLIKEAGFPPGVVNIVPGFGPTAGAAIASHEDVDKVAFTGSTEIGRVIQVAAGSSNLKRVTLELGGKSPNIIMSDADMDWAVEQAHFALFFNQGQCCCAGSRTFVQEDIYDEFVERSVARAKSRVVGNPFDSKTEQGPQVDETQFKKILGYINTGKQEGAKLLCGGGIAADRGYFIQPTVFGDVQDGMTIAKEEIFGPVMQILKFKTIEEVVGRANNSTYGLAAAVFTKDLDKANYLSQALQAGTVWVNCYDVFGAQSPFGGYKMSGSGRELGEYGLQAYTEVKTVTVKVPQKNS
Text: ALDHs were cloned into bacterial expression vector for in vitro enzyme assays and into mammalian expression vectors for cell-based enzyme assays. Human ALDH1A1 cDNA and human ALDH2 cDNA were purchased from OriGene (SC321535) and Open Biosystems (MHS4771-99611182), respectively. and human ALDH1A2 cDNA was cloned from human testis RNA using RT-PCR (Population Division of the Department of Economic and Social Affairs of the United Nations Secretariat. World Population prospects: the 2008 revision. Available at http://www.un.org/esa/population/ (Retrieved Sep. 30, 2011)). For bacterial expression, an open reading frame of ALDH1A1 and ALDH2 were subcloned into the pETite vector (Lucigen) with a 5′ histidine-tag and that of ALDH1A2 into a pET28 vector (Novagen) with a 3′ histidine-tag. Correct frame and sequences were verified through DNA sequencing (UW DNA sequencing facility). ALDHs were induced with 1 mM IPTG and purified using His.Bind resin (Novagen, San Diego, Calif.) and stored in a buffer containing 20 mM Hepes (pH 8), 150 mM KCl and 1 mM EDTA as previously described (Fierce, Y., de Morais Vieira, M., Piantedosi, R., Wyss, A., Blaner, W. S., and Paik, J. (2008) In vitro and in vivo characterization of retinoid synthesis from beta-carotene. Archives of biochemistry and biophysics 472, 126-138). […]
For this, 2 μg purified ALDH2, 20 μM propanal and varying concentrations of inhibitors were incubated at room temperature. Enzyme activity was determined by measuring fluorescence of NADH (Ex, 350 nm/Em, 460 nm) using a Victor3 plate reader (PerkinElmer), and initial velocity was calculated from two consecutive readings over 1 minute.

[4] = target: T2, ALDH1A2; assay: Inhibitor screening using purified enzymes: ALDH1A2 activity, retinoic acid production by HPLC (5 uM initial screen, then IC50); assay type: biochemical; design: histidine-tag (C); made in house; host or cells: bacterial expression (pET28 vector, IPTG induction); conditions: purified enzyme
Text: ALDHs were cloned into bacterial expression vector for in vitro enzyme assays and into mammalian expression vectors for cell-based enzyme assays. Human ALDH1A1 cDNA and human ALDH2 cDNA were purchased from OriGene (SC321535) and Open Biosystems (MHS4771-99611182), respectively. and human ALDH1A2 cDNA was cloned from human testis RNA using RT-PCR (Population Division of the Department of Economic and Social Affairs of the United Nations Secretariat. World Population prospects: the 2008 revision. Available at http://www.un.org/esa/population/ (Retrieved Sep. 30, 2011)). For bacterial expression, an open reading frame of ALDH1A1 and ALDH2 were subcloned into the pETite vector (Lucigen) with a 5′ histidine-tag and that of ALDH1A2 into a pET28 vector (Novagen) with a 3′ histidine-tag. Correct frame and sequences were verified through DNA sequencing (UW DNA sequencing facility). ALDHs were induced with 1 mM IPTG and purified using His.Bind resin (Novagen, San Diego, Calif.) and stored in a buffer containing 20 mM Hepes (pH 8), 150 mM KCl and 1 mM EDTA as previously described (Fierce, Y., de Morais Vieira, M., Piantedosi, R., Wyss, A., Blaner, W. S., and Paik, J. (2008) In vitro and in vivo characterization of retinoid synthesis from beta-carotene. Archives of biochemistry and biophysics 472, 126-138).
ALDH1A1 and ALDH1A2 activity was determined as previously reported (Beedle M T, Stevison F, Zhong G, Topping T, Hogarth C, Isoherranen N, Griswold M D. Sources of All-Trans Retinal Oxidation Independent of the Aldehyde Dehydrogenase 1A Isozymes Exist in the Postnatal Testis. Biol Reprod. 2018 Sep. 21. doi: 10.1093/biolre/ioy200). Briefly, purified enzymes were incubated in a buffer containing 10 mM HEPES buffer (pH 8.0), 150 mM potassium chloride and 2 mM EDTA with 2 mM NAD. Retinoic acid production was determined using HPLC as previously reported (Amory J K, Muller C H, Shimshoni A J, Isoherranen N, Paik J, Moreb J S, Amory D W, Evanoff R, Goldstein A S, Griswold M D. Suppression of spermatogenesis by bisdichloroacetyldiamines is mediated by inhibition of testicular retinoic acid biosynthesis. Journal of Andrology 2011; 32(1):111-119). Inhibitors were diluted in DMSO and added to the reactions. […] For initial screening of inhibitors for ALDH1A2, 1 μg ALDH1A2, 5 μM all-trans-retinal and 5 μM inhibitors were incubated for 15 min at 37° C. […] For this purpose, 0.5 μg ALDH1A2 and […] were incubated for 5 minutes at 37° C. with varying concentrations of inhibitors. To determine specificity toward ALDH1A2, the IC50 for […]

| EC50 [1] [µM] | EC50 [2] [µM] | IC50 [3] [µM] | IC50 [4] [µM] | Molecule |
| --- | --- | --- | --- | --- |
| 3.38 | 0.952 | – | – | CC(=O)Oc1ccc(-c2nn(-c3ccccc3)cc2C=O)cc1 [Cmpd 35] |
| – | < 0.5 | 14.2 | 0.036 | CS(=O)(=O)c1ccc(-c2nn(-c3cccc(Cl)c3)cc2C(=O)Nc2ccccc2O)cc1 [Compound 240, N-(2-Hydroxyphenyl)-3-[4-(methylsulfonyl)phenyl]-1-(3-chlorophenyl)-1H-pyrazole-4-carboxamide] |
| – | < 0.5 | 6.32 | 0.045 | CS(=O)(=O)c1ccc(-c2nn(-c3ccc(F)cc3)cc2C(=O)Nc2ccccc2O)cc1 [Compound 242, N-(2-Hydroxyphenyl)-3-[4-(methylsulfonyl)phenyl]-1-(4-fluorophenyl)-1H-pyrazole-4-carboxamide] |
| – | – | 10 | 0.059 | CS(=O)(=O)c1ccc(-c2nn(-c3ccccc3)cc2C(=O)Nc2cccnc2)cc1 [Compound 253, 3-[4-(Methylsulfonyl)phenyl]-1-phenyl-N-(pyridin-3-yl)-1H-pyrazole-4-carboxamide] |
| – | – | 91.7 | 0.346 | CS(=O)(=O)c1ccc(-c2nn(-c3cccc(C#N)c3)cc2C(=O)Nc2cccc(C(F)(F)F)c2)cc1 [Compound 270, 1-(3-Cyanophenyl)-N-(3-trifluoromethylphenyl)-3-[4-(methylsulfonyl)phenyl]-1H-pyrazole-4-carboxamide] |
| 18.4 | 0.4 | – | – | CS(=O)(=O)c1ccc(-c2nn(-c3ccc(C(N)=O)cc3)cc2C(=O)Nc2cccc(F)c2)cc1 [Compound 283, 1-(4-Carbomylphenyl)-3-[4-(methylsulfonyl)phenyl]-N-(3-fluorophenyl)-1H-pyrazole-4-carboxamide] |
| 1.93 | 0.04 | – | – | CS(=O)(=O)c1ccc(-c2nn(-c3ccc(C(=O)NO)cc3)cc2C(=O)Nc2cccc(F)c2)cc1 [Compound 284, 1-(4-Hydroxycarbomylphenyl)-3-[4-(methylsulfonyl)phenyl]-N-(3-fluorophenyl)-1H-pyrazole-4-carboxamide] |
| 0.81 | 0.25 | – | – | CNC(=O)c1ccc(-n2cc(C(=O)Nc3cccc(F)c3)c(-c3ccc(S(C)(=O)=O)cc3)n2)cc1 [Compound 285, 1-(4-Methylcarbomylphenyl)-3-[4-(methylsulfonyl)phenyl]-N-(3-fluorophenyl)-1H-pyrazole-4-carboxamide] |
| > 20 | 0.11 | – | – | CN(C)C(=O)c1ccc(-n2cc(C(=O)Nc3cccc(F)c3)c(-c3ccc(S(C)(=O)=O)cc3)n2)cc1 [Compound 286, 1-(4-Dimethylcarbomylphenyl)-3-[4-(methylsulfonyl)phenyl]-N-(3-fluorophenyl)-1H-pyrazole-4-carboxamide] |
| – | – | 5.22 | 0.142 | O=C(c1sccc1Cl)N1CCN(c2ccc([N+](=O)[O-])c(N3CCCC3)c2)CC1 [Compound 324, {4-[4-Nitro-3-(pyrrolidin-1-yl)phenyl]piperazin-1-yl}(3-chlorothiophen-2-yl)methanone] |
| – | – | 2.07 | 0.342 | O=C(c1ccc(O)s1)N1CCN(c2ccc([N+](=O)[O-])c(N3CCCC3)c2)CC1 [Compound 335] |

| Molecule | EC50 [1] [µM] | EC50 [2] [µM] | IC50 [3] [µM] | IC50 [4] [µM] |
| --- | --- | --- | --- | --- |
| 1-(4-Hydroxymethylphenyl)-3-[4-(methylsulfonyl)phenyl]-N-(3-fluorophenyl)-1H-pyrazole-4-carboxamide [Compound 282] | > 20 | 0.24 | – | – |
| 2-(Acetyloxy)phenyl 1-(4-fluorophenyl)-3-[4-(methylsulfonyl)phenyl]-1H-pyrazole-4-carboxylate [Compound 293] | > 20 | 0.07 | – | – |
